The test has as its system neurons in rat cerebrocortical cultures (SDF-1-induced apoptosis). Briefly: SDF-1-induced neuronal apoptosis in rat cerebrocortical cultures. The test is classed as cell-based, Sprague-Dawley rats. To be noted: p38 MAPK inhibition by SB 203580, FIG. 4(B). The protocol: The model used in the assays described below, i.e., rat cerebrocortical cultures, was prepared from embryos of Sprague-Dawley rats at day 15 to 17 of gestation. See Lei et al., Neuron 8:1087-1099 (1992) and Lipton et al., Nature 364:626-632 (1993). Cultures were used for experiments after 17 to 24 days in culture. These cultures contain neurons, astrocytes, and macrophages/microglia, as determined with specific immunolabeling. Prior to some experiments, macrophages/microglia or neurons were depleted from the cultures by exposure to 7.5 mM L-leucine methyl ester or 2 mM N-methyl-D-aspartate (NMDA), respectively. See Lipton, NeuroReport 3:913-915 (1992). Absence of macrophages/microglia or neurons in these cultures was confirmed immunocytochemically, using antibodies to ED-1 and microtubule-associated protein-2 (MAP-2), respectively. In some experiments, the Griess reaction was used to measure nitrite levels in the culture medium as an index of nitric oxide (NO) release. See Chao et al., Glia 16:276-284 (1996). […]
Neuronal apoptosis in the above-described assays was assessed using a variety of techniques, e.g., staining of permeabilized cells with propidium iodide to determine apoptotic morphology, and a neuron-specific antibody (against NeuN or MAP-2) to identify cell type. […]

Consider `C[S+]([O-])c1ccc(-c2nc(-c3ccc(F)cc3)c(-c3ccncc3)[nH]2)cc1` (stereo not shown) [SB 203580, 4-(4-fluorophenyl)-2-(4-methylsulfinylphenyl)-5-(4-pyridyl)-1H-imidazole], for which the “effect on SDF-1 neurotoxicity (SDF-1β-induced neuronal apoptosis)” value is recorded as “ameliorated”.
